# Like-named read-outs stand apart in the source and are kept apart here.
# Tests used:
# CD8 T-cell clones = test: Cell viability (CellTiter-Glo) of CD8 T-cell clones treated with HDACi, with or without decitabine; format: cell-based, human; design: AUC (Area Under the Curve) T-CD8 clones - 5-aza: unit not given beside the values; settings: for AUC (Area Under the Curve) T-CD8 clones + 5-aza 500nM / AUC (Area Under the Curve) T-CD8 clones - 5-aza: viability dose-response curve; for AUC (Area Under the Curve) T-CD8 clones + 5-aza 500nM: decitabine 500 nM pretreatment; for AUC (Area Under the Curve) T-CD8 clones - 5-aza: no decitabine; for IC50: Homo sapiens, T-cell
# [1] = cited from earlier work
# PD-L1 (B7-H1) mRNA = test: PD-L1 mRNA expression in MPM cells by real time PCR; settings: for PD-L1 mRNA: HDACi 48 h combined with decitabine 500 nM (72 h pretreatment); for PD-L1 expression: two additional MPM cell lines (Meso34 and Meso45), molecule alone
# Protocol: (§4) All real-time PCR reactions were performed using the Mx3005P QPCR Systems (Stratagen Products, Agilent Technologies), and the amplifications were done using the SYBR Green PCR Master Mix SAB bioscience (Qiagen) mixed with Oligonucleotides QuantiTect Primer (Qiagen). The thermal cycling conditions were composed of 1 cycle at 95 °C for 10 min, 40 cycles at 95 °C for 30 s and 60 °C for 1 min, and 1 cycle at 95 °C for 1 min, 60 °C for 30 s, and 95 °C for 30 s. The experiments were carried out in duplicate for each data point. All the qPCR data were analyzed by MxPro software.
# lymphocytes = test: Cell viability (CellTiter-Glo) of lymphocytes treated with HDACi, with or without decitabine; design: hematological toxicity: dose or concentration left out as unconfirmed; AUC (Area Under the Curve) Lymphocytes - 5-aza: unit not given beside the values; settings: for AUC (Area Under the Curve) Lymphocytes + 5-aza 500nM / AUC (Area Under the Curve) Lymphocytes - 5-aza: viability dose-response curve; for AUC (Area Under the Curve) Lymphocytes + 5-aza 500nM: decitabine 500 nM pretreatment; for AUC (Area Under the Curve) Lymphocytes - 5-aza: no decitabine
# [2] = tested on: natural killer cells (NK) (CD56+, CD16+); test: Flow cytometry of natural killer cell proportion in treated lymphocytes; format: cell-based, human
# Protocol: (§1) For flow cytometry experiments, lymphocytes were seeded at 4 × 10^5cells/well in a flat-bottomed 96-well plate in 180 μl RPMI 1640 8% HS. […]
# (§2) The day of analysis, cells were stained in a conical-bottomed 96-well plate at 10^5 cells/well. The plate was centrifuged at 800×g for 1 min, and the pellets were washed using 200 μl/well of PBS containing BSA 0.1% (wash buffer). Antibodies (see Additional file 2: Table S2) were used at a dilution of 1/30 in the wash buffer, and then, the plate was incubated at 4 °C for 30 min. Later, two washings were performed using the wash buffer prior to flow cytometry analysis. All flow cytometry data were acquired with FACScalibur (BD biosciences) using the CellQuest software (BD Biosciences) and analyzed by FlowJo software.
# (§3) The aim of our strategy is to induce an anti-tumor immune response to cure malignant pleural mesothelioma by using combinations of epigenetic drugs including HDACi. Therefore, it was necessary to study the effect of these HDACi on sub-populations of lymphocytes implicated in this immune response. […] Toxicity of the compounds was tested on natural killer cells (NK) (CD56+, CD16+), on regulatory T-cells (Treg) (CD4+, CD25+, CD127 low and Foxp3+), on CD4 and CD8 naïve T-cells (CD4+, CCR7+ and CD45RA+, and CD8+, CCR7+ and CD45RA+, respectively), and on CD4 and CD8 memory T cells (CD4+ and CD45RO+, and CD8+ and CD45RO+, respectively).
# [3] = tested on: regulatory T-cells (Treg) (CD4+, CD25+, CD127 low and Foxp3+); test: Flow cytometry of regulatory T cell proportion in treated lymphocytes; format: cell-based, human; settings: decitabine alone 500 nM, 72 h
# Protocol: as §1, §2, §3
# MDA5 mRNA = MDA5 mRNA expression in MPM cells by real time PCR; settings: decitabine alone
# Protocol: as §4
# RIG-1 mRNA = RIG-1 mRNA expression in MPM cells by real time PCR; settings: decitabine alone
# Protocol: as §4
smiles,measurement,setting,value
"O=C(CCCCCCC(=O)Nc1ccccc1)NO [SAHA, Suberoylanilide hydroxamic acid]",AUC (Area Under the Curve) T-CD8 clones + 5-aza 500nM,CD8 T-cell clones,35.07
same,AUC (Area Under the Curve) T-CD8 clones - 5-aza,CD8 T-cell clones,112.2
same,clinical doses measured in blood from patients,[1],1 to 4 µM
same,blood concentrations reach in clinic,"[1]; patients, clinical trials",approximately 1 μM
same,PD-L1 mRNA,PD-L1 (B7-H1) mRNA; Meso96,significant increase
same,PD-L1 expression,PD-L1 (B7-H1) mRNA,increased
same,toxicity for lymphocytes and CD8 T-cells,lymphocytes; at clinical doses measured in blood from patients (approximately 1 to 4 μM),toxic
same,cells survived,"lymphocytes; lymphocytes, highest dose of compound, in the presence or not of decitabine",approximately 40%
same,AUC (Area Under the Curve) Lymphocytes + 5-aza 500nM,lymphocytes,183.9
same,AUC (Area Under the Curve) Lymphocytes - 5-aza,lymphocytes,200.5
"CCCC(CCC)C(=O)O [VPA, valproic acid]",IC50,"CD8 T-cell clones; read-out: IC50 T-CD8 clones + Decitabine 500 nM, decitabine 500 nM 72 h pretreatment, then 48 h HDACi",0.02 mM
same,IC50,"CD8 T-cell clones; 48 h HDACi, no decitabine pretreatment, read-out: IC50 T-CD8 clones − Decitabine",3.8 ± 0.06 mM
same,AUC (Area Under the Curve) T-CD8 clones + 5-aza 500nM,CD8 T-cell clones,60.52
same,AUC (Area Under the Curve) T-CD8 clones - 5-aza,CD8 T-cell clones,216.8
same,decrease of the proportion of NK cells,"[2]; in comparison to untreated lymphocytes, 48 h, VPA 5 mM, SAHA 1 μM, ODB 32 μM, NODB 8 μM, ODH 4 μM, NODH 50 nM",more than 50%
same,blood concentrations observed during treatments,"[1]; patients, clinical trials",approximately 1 mM
same,PD-L1 mRNA,PD-L1 (B7-H1) mRNA; Meso96,significant increase
same,PD-L1 expression,PD-L1 (B7-H1) mRNA,increased
same,hematological toxicity,lymphocytes; (blood concentration observed during treatments),weak hematological toxicity
same,AUC (Area Under the Curve) Lymphocytes + 5-aza 500nM,lymphocytes,208.5
same,AUC (Area Under the Curve) Lymphocytes - 5-aza,lymphocytes,248.3
"Nc1ncn([C@H]2C[C@H](O)[C@@H](CO)O2)c(=O)n1 [decitabine, 5-Aza-2′-deoxycytidine]",effect on NK proportion,"[2]; decitabine alone 500 nM, 72 h",reduced moderately
same,effect on Treg proportion,[3],reduced moderately
same,MDA5 mRNA expression,MDA5 mRNA; Meso34,increased significantly
same,MDA5 mRNA expression,MDA5 mRNA; Meso45,increased significantly
same,MDA5 mRNA expression,MDA5 mRNA; Meso96,not
same,mRNA expression of PD-L1,"PD-L1 (B7-H1) mRNA; Meso96, decitabine alone 500 nM",did not affect
same,PD-L1 expression,PD-L1 (B7-H1) mRNA,increased
same,RIG-1 mRNA expression,RIG-1 mRNA; Meso34,increased significantly
same,RIG-1 mRNA expression,RIG-1 mRNA; Meso45,increased significantly
same,RIG-1 mRNA expression,RIG-1 mRNA; Meso96,not
